Laboratory results from US20140288071A1, “INHIBITORS OF NOTUM […] AND METHODS OF THEIR USE” (priority 2011, published 2014).

What was measured:
[1] = target: T1, human notum pectinacetyltransferase (Homo sapiens, UniProt Q6P988); assay: Binding assay (OPTS esterase substrate, fluorimetric); type: biochemical; settings: OPTS substrate 5 μM
T1 construct: made in house; conditioned medium used
T1 sequence (Q6P988 20-496): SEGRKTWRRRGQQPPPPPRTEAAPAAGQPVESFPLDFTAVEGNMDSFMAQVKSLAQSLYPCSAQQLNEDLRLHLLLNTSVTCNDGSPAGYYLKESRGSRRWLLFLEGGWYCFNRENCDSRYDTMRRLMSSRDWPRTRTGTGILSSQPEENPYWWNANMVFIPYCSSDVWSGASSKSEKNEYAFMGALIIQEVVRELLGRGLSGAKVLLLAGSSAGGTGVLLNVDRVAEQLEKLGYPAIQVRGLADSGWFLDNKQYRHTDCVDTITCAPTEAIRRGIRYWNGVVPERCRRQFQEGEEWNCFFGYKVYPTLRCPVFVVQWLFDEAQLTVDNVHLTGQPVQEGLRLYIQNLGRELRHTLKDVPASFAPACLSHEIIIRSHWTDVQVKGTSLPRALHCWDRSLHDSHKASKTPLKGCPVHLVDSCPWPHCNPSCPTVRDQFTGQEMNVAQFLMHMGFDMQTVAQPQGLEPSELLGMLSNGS
Experimental: Plasmid containing human notum pectinacetyltransferase in pcDNA3.1(+) vector was transfected into HEK293 cells and clones were selecting by growing in presence of 400 ug/mL of G418. Condition media from these cells was used for the assay.

[2] = target: T1, human notum pectinacetyltransferase; assay: Reporter assay (CellSensor LEF/TCF-bla FreeStyle 293F cells, Wnt3a and notum conditioned media); type: cell-based
Experimental: Plasmid containing human notum pectinacetyltransferase in pcDNA3.1(+) vector was transfected into HEK293 cells and clones were selecting by growing in presence of 400 ug/mL of G418. […] L cells overexpressing and secreting Wnt3a into the conditioned media were purchased from ATCC.
The assay protocol was as follows. […] The cell growth medium consisted of DMEM with 10% Dialyzed FBS, 5 μg/ml Blasticidin (Invitrogen, R210-01), 0.1 mM NEAA, 25 mM HEPES and 1×GPS. Cells were then trypsinized by first rinsing with PBS, followed by addition of 5 mL of trypsin and incubation of plates at room temperature for two minutes. A total of 10 mL of assay media (Opti-MEM, plus 0.5% dialyzed FBS, 0.1 mM NEAA, 1 mM sodium pyruvate, 10 mM HEPES, 1×GPS) was then added per 15 cm plate. Cells were counted and suspended at 0.75 million cells per mL. […] After incubation of cells at 37° C. for 3 hours, 10 μL of 30 mM LiCl in assay medium was added per well, followed by incubation at 37° C. for another 3 hours. […] Ten μL of the Wnt3a/notum pentinacetyltransferase mixture was then transferred from Greiner plates to each well of the 384-well plates containing the CellSensor cells. After incubation of cells overnight at 37° C., reactions were developed by addition of […] of 1×CCF4 (Invitrogen, Catalogue number K1085) to each well, covering the entire 384-well plate, and gentle rocking in the dark at room temperature for 3 hours.

[3] = system: F1 male hybrid (129×C57) mice; assay: Midshaft femur cortical thickness by microCT in treated mice; type: in vivo; settings: for increase in midshaft femur cortical thickness: second study
Experimental: The compound was administered in the animals' diet. Four groups of mice were used: control (N=12); 25 mg/kg compound (N=9); 83 mg/kg compound (N=9); and an additional group wherein Li2CO3 was administered in the diet (0.1%) (N=9).
Midshaft femur cortical thickness was measured using a Scanco μCT40. […] For the Li2CO3 group, a decrease in cortical bone thickness of 2% (p=0.90) was observed. […]
Midshaft femur cortical thickness was measured by microCT (Scanco μCT40). […]

[4] = system: Fischer 344 ovariectomized rats; assay: Midshaft femur and tibia cortical thickness by microCT in sham and ovariectomized rats; type: in vivo; settings: target dose 30 mg/kg in diet, five weeks, ANOVA p=0.05 for treatment
Text: The pharmacology of 2-((5-chloro-6-methylthieno[2,3-d]pyrimidin-4-yl)thio)acetic acid was studied in Fischer 344 ovariectomized rats. The rats underwent ovariectomies or sham surgery at 43 or 46 weeks of age, and treatment with the compound started at 37 or 40 weeks thereafter, at 83 weeks of age.
Four treatment groups were used: sham-surgery given control diet (N=14); sham-surgery given compound (N=12); OVX-surgery given control diet (N=14); and OVX-surgery given compound (N=12). The compound was dosed by incorporating it into the rats' diet: 0.46 grams of compound per kg of diet. The target dose was 30 mg/kg. Dosing occurred for five weeks.
Bone mass and architecture was determined by microCT, using a Scanco μCT40. […] The difference between the cortical bone thicknesses of the sham control and OVX control was −13%. Two-factor ANOVA values were: p<0.001 for OVX surgery; p=0.05 for treatment; and p=0.65 for interaction.
Two-factor ANOVA values were: p=0.79 for OVX surgery; p=0.05 for treatment; and p=0.52 for interaction.

| IC50 [1] [nM] | EC50 [2] [nM] | Compound | further results |
| --- | --- | --- | --- |
| < 25 | < 1000 | CC(C)c1sc2ncnc(SCC(=O)O)c2c1Cl [2-((5-chloro-6-isopropylthieno[2,3-d]pyrimidin-4-yl)thio)acetic acid] | increase in cortical bone thickness (midshaft femur) compared to control ([3]; 5 mg/kg twice daily oral gavage, 25 days, starting at 8.7 weeks of age, p=0.002): 6%; increase in cortical bone thickness (midshaft femur) compared to control ([3]; 10 mg/kg twice daily oral gavage, 25 days, starting at 8.7 weeks of age, p=0.007): 5%; increase in cortical bone thickness (midshaft femur) compared to control ([3]; 15 mg/kg twice daily oral gavage, 25 days, starting at 8.7 weeks of age, p=0.001): 6% |
| < 25 | < 1000 | Cc1sc2ncnc(SCC(=O)O)c2c1Cl [2-((5-chloro-6-methylthieno[2,3-d]pyrimidin-4-yl)thio)acetic acid] | increase in midshaft femur cortical bone thickness ([4]; intact (sham) rats): 3%; increase in midshaft tibia cortical thickness ([4]; intact (sham) rats): 2%; increase in midshaft femur cortical bone thickness ([4]; ovariectomized rats): 5%; increase in midshaft tibia cortical thickness ([4]; ovariectomized rats): 5% |
| < 25 | < 1000 | Cc1c(Cl)sc2c(SCC(=O)O)ncnc12 [2-((6-chloro-7-methylthieno[3,2-d]pyrimidin-4-yl)thio)acetic acid] | increase in midshaft femur cortical bone thickness compared to control ([3]; first experiment, 10 mg/kg daily oral gavage, 25 days, starting at 54 weeks of age, p=0.06): 6%; increase in midshaft femur cortical bone thickness compared to control ([3]; first experiment, 100 mg/kg daily oral gavage, 25 days, starting at 54 weeks of age, p=0.03): 7%; increase in midshaft femur cortical bone thickness compared to control ([3]; second experiment, 34 mg/kg in diet, 18 days, starting at 8.1 weeks of age, p<0.01): 10%; increase in midshaft femur cortical bone thickness compared to control ([3]; second experiment, 34 mg/kg in diet, seven days, starting at 8.1 weeks of age, p=0.13): 6% |
| – | – | O=C(O)CSc1ncnc2c(C3CC3)c(Cl)sc12 [2-((6-chloro-7-cyclopropylthieno[3,2-d]pyrimidin-4-yl)thio)acetic acid] | increase in cortical bone thickness (midshaft femur) compared to control ([3]; 3 mg/kg daily oral gavage, 25 days, starting at 8.7 weeks of age, p=0.003): 7%; increase in cortical bone thickness (midshaft femur) compared to control ([3]; 10 mg/kg daily oral gavage, 25 days, starting at 8.7 weeks of age, p<0.001): 10%; increase in cortical bone thickness (midshaft femur) compared to control ([3]; 30 mg/kg daily oral gavage, 25 days, starting at 8.7 weeks of age, p<0.001): 13% |
| – | – | Cc1sc2ncnc(SCC(=O)O)c2c1C [2-((5,6-dimethylthieno[2,3-d]pyrimidin-4-yl)thio)acetic acid] | increase in cortical bone thickness (midshaft femur) compared to control ([3]; first study, 25 mg/kg in diet, 25 days, starting at 10.7 weeks of age, p=0.04): 9%; increase in cortical bone thickness (midshaft femur) compared to control ([3]; first study, 83 mg/kg in diet, 25 days, starting at 10.7 weeks of age, p=0.07): 8%; increase in midshaft femur cortical thickness ([3]; 8 mg/kg in diet, 25 days, starting at 10.7 weeks of age, p=0.19): 4%; increase in midshaft femur cortical thickness ([3]; 24 mg/kg in diet, 25 days, starting at 10.7 weeks of age, p=0.05): 6% |
| – | – | O=C([O-])[O-].[Li+].[Li+] [Li2CO3, reference compound] | decrease in cortical bone thickness (midshaft femur) compared to control ([3]; first study, 0.1% in diet, 25 days, p=0.90): 2% |
| < 25 | < 1000 | Cc1sc2ncnc(SCC(=O)N(C)C)c2c1Cl [2-((5-chloro-6-methylthieno[2,3-d]pyrimidin-4-yl)thio)-N,N-dimethylacetamide] | – |
| < 25 | < 10000 | Cc1sc2ncnc(SCC(=O)N3Cc4ccccc4C3)c2c1C [2-((5,6-dimethylthieno[2,3-d]pyrimidin-4-yl)thio)-1-(isoindolin-2-yl)ethanone] | – |
| < 250 | < 15000 | Cc1csc2c(SCC(=O)O)ncnc12 [2-((7-methylthieno[3,2-d]pyrimidin-4-yl)thio)acetic acid] | – |
| < 25 | < 1000 | CCc1sc2ncnc(SCC(=O)O)c2c1Br [2-((5-bromo-6-ethylthieno[2,3-d]pyrimidin-4-yl)thio)acetic acid] | – |
| < 25 | < 1000 | CCNC(=O)CSc1ncnc2c(C)c(Cl)sc12 [2-((6-chloro-7-methylthieno[3,2-d]pyrimidin-4-yl)thio)-N-ethylacetamide] | – |
| < 250 | < 10000 | Cc1cc2c(SCC(=O)O)ncnc2s1 [2-((6-methylthieno[2,3-d]pyrimidin-4-yl)thio)acetic acid] | – |
| < 25 | < 1000 | Cc1sc2c(SCC(=O)O)ncnc2c1C1CC1 [2-((7-cyclopropyl-6-methylthieno[3,2-d]pyrimidin-4-yl)thio)acetic acid] | – |
| < 25 | < 1000 | COCCNC(=O)CSc1ncnc2c(C)c(Cl)sc12 [2-((6-chloro-7-methylthieno[3,2-d]pyrimidin-4-yl)thio)-N-(2-methoxyethyl)acetamide] | – |
| < 25 | < 1000 | Cc1sc2ncnc(SCC(=O)NCc3ccco3)c2c1Cl [2-((5-chloro-6-methylthieno[2,3-d]pyrimidin-4-yl)thio)-N-(furan-2-ylmethyl)acetamide] | – |
| < 25 | < 1000 | Cc1sc2ncnc(SCC(=O)OC(C)C)c2c1C [isopropyl 2-((5,6-dimethylthieno[2,3-d]pyrimidin-4-yl)thio)acetate] | – |
